Experimental data from US20260070945A1, “MACROCYCLIC IMMUNOMODULATORS” (Bristol-Myers Squibb Company, priority 2022, published 2026).
*1 amine or outer side, *2 acyl side, *3 side chain or, on linkers, in order; H or OH if unused. Where a SMILES comes first, the peptide text is derived from it. Bridges are numbered along the chain shown (N, C = ends). [ ]: non-standard residue; d: D form. The star is where a group is joined. X13 = O=C([C@H](Cc1ccc(-c2cc(F)cc(F)c2)cc1)N[*:1])[*:2]; Phe(3-CF3) = N[C@@H](Cc1cccc(C(F)(F)F)c1)C(=O)O; Phe(4-COOH) = N[C@@H](Cc1ccc(C(=O)O)cc1)C(=O)O; Bip = N[C@@H](Cc1ccc(-c2ccccc2)cc1)C(=O)O; Phe(3-CN) = N#Cc1cccc(C[C@H](N)C(=O)O)c1; Phe(3-Cl) = N[C@@H](Cc1cccc(Cl)c1)C(=O)O; Morpholine(3S-CO) = O=C(O)[C@@H]1COCCN1; Phe(3-Me) = Cc1cccc(C[C@H](N)C(=O)O)c1; 4Pal = N[C@@H](Cc1ccncc1)C(=O)O; Cha = N[C@@H](CC1CCCCC1)C(=O)O; Cit = NC(=O)NCCC[C@H](N)C(=O)O; Carboxymethyl = O=C(O)C*; NMeA = CN[C@@H](C)C(=O)O; Aun = NCCCCCCCCCCC(=O)O; Dab = NCC[C@H](N)C(=O)O; AEEA = NCCOCCOCC(=O)O

Target: T1, PD-1/PD-L1 interaction (PE-labeled human PD-L1-Ig binding to Jurkat cell line over-expressing human PD-1) (Homo sapiens, UniProt Q15116)
T1 construct: expressed in transfected cells; host or cells: Jurkat
Assay: Jurkat-PD-1 Cell Binding High-Content Screening Assay (CBA)
Details: Jurkat-hPD-1 cells, PE-labeled PD-L1-Ig 20 nM final; read-out: Jurkat HPD1 PDL1 IC50
Method in brief: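 Jurkat cells overexpressing human PD-1 (8×10^3/well, DMEM + 10% FCS) preincubated with compound 2 h at 37 °C, then PE-labelled human PD-L1-Ig (20 nM final) for 1 h. Cells fixed in paraformaldehyde with Hoechst 33342; bound PD-L1 quantified by high-content imaging.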

T1 sequence (Q15116 25-288): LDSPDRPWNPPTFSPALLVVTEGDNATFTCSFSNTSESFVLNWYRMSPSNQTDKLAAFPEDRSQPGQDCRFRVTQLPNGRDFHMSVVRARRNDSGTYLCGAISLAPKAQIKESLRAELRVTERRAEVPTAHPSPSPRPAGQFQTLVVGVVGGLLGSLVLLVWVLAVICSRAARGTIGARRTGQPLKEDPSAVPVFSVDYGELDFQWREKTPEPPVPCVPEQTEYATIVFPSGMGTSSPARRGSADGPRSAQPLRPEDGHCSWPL

| Structure (SMILES) | IC50 [nM] |
| --- | --- |
| CC(C)C[C@@H]1NC(=O)[C@H](Cc2c[nH]c3ccccc23)NC(=O)[C@H](CC(=O)O)NC(=O)[C@H](Cc2ccncc2)NC(=O)[C@H](Cc2ccc(OCC(=O)O)cc2)NC(=O)CSC[C@@H](C(=O)N2CCOC[C@H]2C(=O)NCCCCCCCCCCC(=O)O)NC(=O)[C@H](CCCNC(N)=O)NC(=O)[C@H](C(C)C)NC(=O)[C@H](CC2CCCCC2)NC(=O)[C@H](CCN)NC(=O)[C@@H](CC(C)C)NC(=O)[C@H](C)N(C)C(=O)[C@H](C(C)C)NC(=O)[C@H](Cc2ccc(-c3ccccc3)cc2)NC1=O [Example 1223] ({CH2CO}-Y(Carboxymethyl)[4Pal]DWL[Bip]V[NMeA][dL][Dab][Cha]V[Cit]C[Morpholine(3S-CO)][Aun]-OH; thioether N-14) | 420 |
| Cc1cccc(C[C@@H]2NC(=O)[C@H](CC(=O)O)NC(=O)[C@H](Cc3ccc(OCC(=O)O)cc3)NC(=O)[C@H](CCCNC(=N)N)NC(=O)CSC[C@@H](C(=O)N[C@@H](CCCCN)C(=O)NCCCCCCCCCCC(=O)O)NC(=O)[C@H]([C@@H](C)O)NC(=O)[C@H](C(C)C)NC(=O)[C@H](CC3CCCCC3)NC(=O)[C@H](CCN)NC(=O)[C@@H](CC(C)C)NC(=O)[C@H](C)N(C)C(=O)[C@H](Cc3ccc(OCC(=O)O)cc3)NC(=O)[C@H](Cc3ccc(-c4ccccc4)cc3)NC(=O)[C@H](Cc3ccc(C(=O)O)cc3)NC2=O)c1 [Example 1225] ({CH2CO}-RY(Carboxymethyl)D[Phe(3-Me)][Phe(4-COOH)][Bip]Y(Carboxymethyl)[NMeA][dL][Dab][Cha]VTCK[Aun]-OH; thioether N-14) | 48.7 |
| Cc1cccc(C[C@@H]2NC(=O)[C@H](CC(=O)O)NC(=O)[C@H](Cc3ccc(OCC(=O)O)cc3)NC(=O)[C@H](CCCCN)NC(=O)CSC[C@@H](C(=O)N[C@@H](CCCCN)C(=O)NCCCCCCCCCCC(=O)O)NC(=O)[C@H]([C@@H](C)O)NC(=O)[C@H](C(C)C)NC(=O)[C@H](CC3CCCCC3)NC(=O)[C@H](CCN)NC(=O)[C@@H](CC(C)C)NC(=O)[C@H](C)N(C)C(=O)[C@H](Cc3ccc(OCC(=O)O)cc3)NC(=O)[C@H](Cc3ccc(-c4ccccc4)cc3)NC(=O)[C@H](Cc3ccc(C(=O)O)cc3)NC2=O)c1 [Example 1226] ({CH2CO}-KY(Carboxymethyl)D[Phe(3-Me)][Phe(4-COOH)][Bip]Y(Carboxymethyl)[NMeA][dL][Dab][Cha]VTCK[Aun]-OH; thioether N-14) | 80.6 |
| Cc1cccc(C[C@@H]2NC(=O)[C@H](CC(=O)O)NC(=O)[C@H](Cc3ccc(OCC(=O)O)cc3)NC(=O)[C@H](CCCNC(=N)N)NC(=O)CSC[C@@H](C(=O)N[C@@H](CCCCN)C(=O)NCCCCCCCCCCC(=O)O)NC(=O)[C@H]([C@@H](C)O)NC(=O)[C@H](C(C)C)NC(=O)[C@H](CC3CCCCC3)NC(=O)[C@H](CCN)NC(=O)[C@@H](CC(C)C)NC(=O)[C@H](C)N(C)C(=O)[C@H](Cc3ccc(OCC(=O)O)cc3)NC(=O)[C@H](Cc3ccc(-c4ccccc4)cc3)NC(=O)[C@H](CCCNC(N)=O)NC2=O)c1 [Example 1227] ({CH2CO}-RY(Carboxymethyl)D[Phe(3-Me)][Cit][Bip]Y(Carboxymethyl)[NMeA][dL][Dab][Cha]VTCK[Aun]-OH; thioether N-14) | 33.9 |
| CC(C)C[C@H]1NC(=O)[C@H](C)N(C)C(=O)[C@H](Cc2ccc(OCC(=O)O)cc2)NC(=O)[C@H](Cc2ccc(-c3ccccc3)cc2)NC(=O)[C@H](Cc2ccc(OCC(=O)O)cc2)NC(=O)[C@H](Cc2cccc(C#N)c2)NC(=O)[C@H](CC(=O)O)NC(=O)[C@H](Cc2ccc(OCC(=O)O)cc2)NC(=O)[C@H]([C@@H](C)O)NC(=O)CSC[C@@H](C(=O)N[C@@H](CCN)C(=O)NCCOCCOCC(=O)NCCCCCCCCCCC(=O)O)NC(=O)[C@H](CCC(=O)O)NC(=O)[C@H](C(C)C)NC(=O)[C@H](CC2CCCCC2)NC(=O)[C@H](CCN)NC1=O [Example 1230] ({CH2CO}-TY(Carboxymethyl)D[Phe(3-CN)]Y(Carboxymethyl)[Bip]Y(Carboxymethyl)[NMeA][dL][Dab][Cha]VEC[Dab][AEEA][Aun]-OH; thioether N-14) | 128 |
| CC(C)C[C@H]1NC(=O)[C@H](C)N(C)C(=O)[C@H](Cc2ccc(OCC(=O)O)cc2)NC(=O)[C@H](Cc2ccc(-c3ccccc3)cc2)NC(=O)[C@H](Cc2ccc(C(=O)O)cc2)NC(=O)[C@H](Cc2cccc(C(F)(F)F)c2)NC(=O)[C@H](CC(=O)O)NC(=O)[C@H](Cc2ccc(OCC(=O)O)cc2)NC(=O)[C@H]([C@@H](C)O)NC(=O)CSC[C@@H](C(=O)N[C@@H](CCN)C(=O)NCCCCCCCCCCC(=O)O)NC(=O)[C@H]([C@@H](C)O)NC(=O)[C@H](C(C)C)NC(=O)[C@H](CC2CCCCC2)NC(=O)[C@H](CCN)NC1=O [Example 1231] ({CH2CO}-TY(Carboxymethyl)D[Phe(3-CF3)][Phe(4-COOH)][Bip]Y(Carboxymethyl)[NMeA][dL][Dab][Cha]VTC[Dab][Aun]-OH; thioether N-14) | 30.2 |
| CC(C)C[C@H]1NC(=O)[C@H](C)N(C)C(=O)[C@H](Cc2ccc(OCC(=O)O)cc2)NC(=O)[C@H](Cc2ccc(-c3ccccc3)cc2)NC(=O)[C@H](Cc2ccc(C(=O)O)cc2)NC(=O)[C@H](Cc2cccc(Cl)c2)NC(=O)[C@H](CC(=O)O)NC(=O)[C@H](Cc2ccc(OCC(=O)O)cc2)NC(=O)[C@H]([C@@H](C)O)NC(=O)CSC[C@@H](C(=O)N[C@@H](CCN)C(=O)NCCCCCCCCCCC(=O)O)NC(=O)[C@H]([C@@H](C)O)NC(=O)[C@H](C(C)C)NC(=O)[C@H](CC2CCCCC2)NC(=O)[C@H](CCN)NC1=O [Example 1232] ({CH2CO}-TY(Carboxymethyl)D[Phe(3-Cl)][Phe(4-COOH)][Bip]Y(Carboxymethyl)[NMeA][dL][Dab][Cha]VTC[Dab][Aun]-OH; thioether N-14) | 34.1 |

Continued, values first:

| IC50 [nM] | Structure (SMILES) |
| --- | --- |
| 27.9 | Cc1cccc(C[C@@H]2NC(=O)[C@H](CC(=O)O)NC(=O)[C@H](Cc3ccc(OCC(=O)O)cc3)NC(=O)[C@H](CCCNC(=N)N)NC(=O)CSC[C@@H](C(=O)N[C@@H](CCCCN)C(=O)NCCCCCCCCCCC(=O)O)NC(=O)[C@H]([C@@H](C)O)NC(=O)[C@H](C(C)C)NC(=O)[C@H](CC3CCCCC3)NC(=O)[C@H](CCN)NC(=O)[C@@H](CC(C)C)NC(=O)[C@H](C)N(C)C(=O)[C@H](Cc3ccc(OCC(=O)O)cc3)NC(=O)[C@H](Cc3ccc(-c4ccccc4)cc3)NC(=O)[C@H](Cc3ccc(OCC(=O)O)cc3)NC2=O)c1 [Example 1224] ({CH2CO}-RY(Carboxymethyl)D[Phe(3-Me)]Y(Carboxymethyl)[Bip]Y(Carboxymethyl)[NMeA][dL][Dab][Cha]VTCK[Aun]-OH; thioether N-14) |
| 16.9 | CC(C)C[C@H]1NC(=O)[C@H](C)N(C)C(=O)[C@H](Cc2ccc(OCC(=O)O)cc2)NC(=O)[C@H](Cc2ccc(-c3ccccc3)cc2)NC(=O)[C@H](Cc2ccc(OCC(=O)O)cc2)NC(=O)[C@H](Cc2cccc(C(F)(F)F)c2)NC(=O)[C@H](CC(=O)O)NC(=O)[C@H](Cc2ccc(OCC(=O)O)cc2)NC(=O)[C@H]([C@@H](C)O)NC(=O)CSC[C@@H](C(=O)N[C@@H](CCN)C(=O)NCCOCCOCC(=O)NCCCCCCCCCCC(=O)O)NC(=O)[C@H](CCC(=O)O)NC(=O)[C@H](C(C)C)NC(=O)[C@H](CC2CCCCC2)NC(=O)[C@H](CCN)NC1=O [Example 1228] ({CH2CO}-TY(Carboxymethyl)D[Phe(3-CF3)]Y(Carboxymethyl)[Bip]Y(Carboxymethyl)[NMeA][dL][Dab][Cha]VEC[Dab][AEEA][Aun]-OH; thioether N-14) |
| 15.2 | CC(C)C[C@H]1NC(=O)[C@H](C)N(C)C(=O)[C@H](Cc2ccc(OCC(=O)O)cc2)NC(=O)[C@H](Cc2ccc(-c3ccccc3)cc2)NC(=O)[C@H](Cc2ccc(OCC(=O)O)cc2)NC(=O)[C@H](Cc2cccc(Cl)c2)NC(=O)[C@H](CC(=O)O)NC(=O)[C@H](Cc2ccc(OCC(=O)O)cc2)NC(=O)[C@H]([C@@H](C)O)NC(=O)CSC[C@@H](C(=O)N[C@@H](CCN)C(=O)NCCOCCOCC(=O)NCCCCCCCCCCC(=O)O)NC(=O)[C@H](CCC(=O)O)NC(=O)[C@H](C(C)C)NC(=O)[C@H](CC2CCCCC2)NC(=O)[C@H](CCN)NC1=O [Example 1229] ({CH2CO}-TY(Carboxymethyl)D[Phe(3-Cl)]Y(Carboxymethyl)[Bip]Y(Carboxymethyl)[NMeA][dL][Dab][Cha]VEC[Dab][AEEA][Aun]-OH; thioether N-14) |
| 66.7 | CC(C)C[C@H]1NC(=O)[C@H](C)N(C)C(=O)[C@H](Cc2ccc(OCC(=O)O)cc2)NC(=O)[C@H](Cc2ccc(-c3ccccc3)cc2)NC(=O)[C@H](Cc2ccc(C(=O)O)cc2)NC(=O)[C@H](Cc2cccc(C#N)c2)NC(=O)[C@H](CC(=O)O)NC(=O)[C@H](Cc2ccc(OCC(=O)O)cc2)NC(=O)[C@H]([C@@H](C)O)NC(=O)CSC[C@@H](C(=O)N[C@@H](CCN)C(=O)NCCCCCCCCCCC(=O)O)NC(=O)[C@H]([C@@H](C)O)NC(=O)[C@H](C(C)C)NC(=O)[C@H](CC2CCCCC2)NC(=O)[C@H](CCN)NC1=O [Example 1233] ({CH2CO}-TY(Carboxymethyl)D[Phe(3-CN)][Phe(4-COOH)][Bip]Y(Carboxymethyl)[NMeA][dL][Dab][Cha]VTC[Dab][Aun]-OH; thioether N-14) |
| 31.6 | Cc1cccc(C[C@@H]2NC(=O)[C@H](CC(=O)O)NC(=O)[C@H](Cc3ccc(OCC(=O)O)cc3)NC(=O)[C@H]([C@@H](C)O)NC(=O)CSC[C@@H](C(=O)N[C@@H](CCN)C(=O)NCCCCCCCCCCC(=O)O)NC(=O)[C@H]([C@@H](C)O)NC(=O)[C@H](C(C)C)NC(=O)[C@H](CC3CCCCC3)NC(=O)[C@H](CCN)NC(=O)[C@@H](CC(C)C)NC(=O)[C@H](C)N(C)C(=O)[C@H](Cc3ccc(OCC(=O)O)cc3)NC(=O)[C@H](Cc3ccc(-c4cc(F)cc(F)c4)cc3)NC(=O)[C@H](Cc3ccc(C(=O)O)cc3)NC2=O)c1 [Example 1234] ({CH2CO}-TY(Carboxymethyl)D[Phe(3-Me)][Phe(4-COOH)][X13]Y(Carboxymethyl)[NMeA][dL][Dab][Cha]VTC[Dab][Aun]-OH; thioether N-14) |
